Values quoted from earlier work as cited in PMC8198792, “Prediction of Anticancer Peptides with High Efficacy and Low Toxicity by Hybrid Model Based on 3D Structure of Peptides” (International Journal of Molecular Sciences, 2021).
Like-named read-outs stand apart in the source and are kept apart here.

Key:
cancer cell lines = test system: cancer cell lines; parameters: method as in 6 sources, ref CancerPPD [45] and SATPdb ||| ref CancerPPD/SATPdb ||| ref CancerPPD, SATPdb, Swissprot (PDB) ||| ref CancerPPD/SATPdb/Swissprot(PDB) ||| ref CancerPPD / SATPdb ||| ...; conditions: cited from earlier work
Text: Supplement ijms-22-05630-s001.zip/ACPs(seguence).xlsx, sheet "D1" | column: Activity || Supplement ijms-22-05630-s001.zip/ACPs(seguence).xlsx, sheet "D2" | column: Activity || Supplement ijms-22-05630-s001.zip/ACPs(seguence).xlsx, sheet "D3" | column: Activity || (+ 2 further places)

erythrocytes = conditions: cited from earlier work
Text: Supplement ijms-22-05630-s001.zip/Hemloytic Peptides(seguence).xlsx, sheet "HD1" | column: Activity || Supplement ijms-22-05630-s001.zip/Hemloytic Peptides(seguence).xlsx, sheet "HD2" | column: Activity || Supplement ijms-22-05630-s001.zip/Hemloytic Peptides(seguence).xlsx, sheet "HD3" | column: Activity

[1] = ACPs dataset D3 (supplement sheet "D3"), 1 = ACP, 0 = non-ACP, ref CancerPPD [45] and SATPdb
[2] = ACPs dataset D4 (sheet "D4"), label 1 = ACP, 0 = non-ACP, ref CancerPPD / SATPdb
[3] = ACPs dataset D5, sheet "D5", label 1 = ACP, 0 = non-ACP, ref CancerPPD [45] and SATPdb
[4] = Hemolytic peptides dataset HD2, label 1 = hemolytic, 0 = non-hemolytic, ref Hemolytik/SATPdb
[5] = hemolytic peptides dataset HD3, 1 = hemolytic (positive set), 0 = non-hemolytic (negative set), labels taken from databases, ref Hemolytik/SATPdb
[6] = ACPs dataset D3 (sheet "D3"), label 1 = ACP, 0 = non-ACP, ref CancerPPD/SATPdb
[7] = ACPs dataset D1, 1 = ACP (positive), 0 = non-ACP (negative), label taken from databases, ref CancerPPD [45] and SATPdb
[8] = ACPs dataset D4 (sheet "D4"), label 1 = ACP (CancerPPD ID), 0 = non-ACP (non-anticancer AMP, SATPdb ID), ref CancerPPD [45] and SATPdb
[9] = natural hemolytic peptide dataset HD1, label collected from databases, ref Hemolytik [49], SATPdb [34]
[10] = ACPs dataset D1, label 1 = ACP, 0 = non-ACP (non-anticancer AMPs from SATPdb), ref CancerPPD/SATPdb

Substance | Activity (cancer cell lines; [2]) | Activity (cancer cell lines; [3]) | Activity (erythrocytes) | Activity (dataset HD1, hemolytic 1 / non-hemolytic 0) (erythrocytes) | further results
GLLGPLLKIAAKVGKKLL [satpdb11754] | 0 | 0 | 1 |  | Activity (cancer cell lines; [1]): 0
VKLKVypLKVKLyP [satpdb10873] | 0 | 0 |  |  | Activity (cancer cell lines; [1]): 0; Activity (erythrocytes; [4]): 1; Activity (erythrocytes; [5]): 1
FLPLIGRVLSGIA [satpdb10103] | 0 | 0 | 1 |  | Activity (cancer cell lines; [1]): 0
GKKLLKKLKKLLKKW [satpdb10586] | 0 | 0 | 1 |  | Activity (cancer cell lines; [1]): 0
FLPLIGRVLSGAL [satpdb13300] | 0 | 0 | 1 |  | Activity (cancer cell lines; [6]): 0
ILPFKFPFPFRR [satpdb12286] | 0 | 0 | 1 |  | Activity (cancer cell lines; [6]): 0
VKLkVyPLKVKLyP [satpdb13685] | 0 | 0 | 1 |  | Activity (cancer cell lines; [6]): 0
AKKVFKRLGIGAVLWVLTWG [satpdb10183] |  |  |  |  | Activity (cancer cell lines; [7]): 0; Activity (cancer cell lines; [8]): 0; Activity (erythrocytes; [5]): 1; Activity (dataset HD1, hemolytic 1 / non-hemolytic 0) (erythrocytes; [9]): 1
KKKAAAFAAWAAFAKKK [satpdb11969] | 0 | 0 | 0 |  | Activity (cancer cell lines; [6]): 0
GLWDTIKQAGKKFFLNVLDKIRCKVAGGCRT [satpdb11099] |  |  |  |  | Activity (cancer cell lines; [7]): 0; Activity (cancer cell lines; [8]): 0; Activity (erythrocytes; [5]): 1; Activity (dataset HD1, hemolytic 1 / non-hemolytic 0) (erythrocytes; [9]): 1
FLAGLIGGLAKMLGK [satpdb10461] |  |  | 1 | 1 | Activity (cancer cell lines; [7]): 0; Activity (cancer cell lines; [8]): 0
RLKELITTGGQKIGEKIRRIGQRIKDFFKNLQPREEKS [satpdb11766] |  |  | 1 | 1 | Activity (cancer cell lines; [10]): 0; Activity (cancer cell lines; [8]): 0
VKLyPVKLyP [satpdb11941] | 0 | 0 |  |  | Activity (cancer cell lines; [1]): 0; Activity (erythrocytes; [4]): 1; Activity (erythrocytes; [5]): 1
GFMKYIKPLIPHAVKAIKKLI [satpdb12244] | 0 | 0 | 1 |  | Activity (cancer cell lines; [6]): 0
KEKLKLKCKAPKCYNDKLACT [satpdb13157] | 0 |  | 0 | 0 | Activity (cancer cell lines; [10]): 0
VNSKKISPKSIKVSK [satpdb10612] | 0 | 0 |  |  | Activity (cancer cell lines; [1]): 0; Activity (erythrocytes; [4]): 1; Activity (erythrocytes; [5]): 1
KLalKLALKALKAALKLA [satpdb12751] | 0 | 0 | 1 |  | Activity (cancer cell lines; [6]): 0
KWKKLLKKPLKLLKKLLK [satpdb12290] | 0 | 0 | 1 |  | Activity (cancer cell lines; [6]): 0
LLLFLLKKRKKRKY [satpdb12213] |  |  | 1 | 1 | Activity (cancer cell lines; [10]): 0; Activity (cancer cell lines; [8]): 0

Substance | Activity (cancer cell lines; [2]) | Activity (cancer cell lines; [3]) | Activity (erythrocytes) | Activity (dataset HD1, hemolytic 1 / non-hemolytic 0) (erythrocytes) | further results
GFLSSLKKSLPKSXAHSK [satpdb13158] | 0 | 0 |  |  | Activity (cancer cell lines; [6]): 0; Activity (erythrocytes; [4]): 1; Activity (erythrocytes; [5]): 1
CGESCVFIPCISTLLGCSCKNKVCYRNGVIP [satpdb11124] |  |  |  |  | Activity (cancer cell lines; [10]): 0; Activity (cancer cell lines; [8]): 0; Activity (erythrocytes; [5]): 1; Activity (dataset HD1, hemolytic 1 / non-hemolytic 0) (erythrocytes; [9]): 1
KNLRRIIRKGIHIIKKYF [satpdb11799] |  |  | 1 | 1 | Activity (cancer cell lines; [10]): 0; Activity (cancer cell lines; [8]): 0
DYDWSLRGPPKCATYGQKCRTWSPPNCCWNLRCKAFRCRPR [satpdb13169] | 0 |  |  |  | Activity (cancer cell lines; [10]): 0; Activity (erythrocytes; [5]): 1; Activity (dataset HD1, hemolytic 1 / non-hemolytic 0) (erythrocytes; [9]): 1
FVPWFSKFLGRIL [satpdb13384] | 0 | 0 |  |  | Activity (cancer cell lines; [6]): 0; Activity (erythrocytes; [4]): 1; Activity (erythrocytes; [5]): 1
VCGETCFGGTCNTPGCSCTWPICTRDGLP [satpdb10452] |  |  |  |  | Activity (cancer cell lines; [10]): 0; Activity (cancer cell lines; [8]): 0; Activity (erythrocytes; [5]): 1; Activity (dataset HD1, hemolytic 1 / non-hemolytic 0) (erythrocytes; [9]): 1
LLIILRRRWRKQAKAKSK [satpdb12920] | 0 | 0 | 1 |  | Activity (cancer cell lines; [6]): 0
RWSVYAYVRVRGVLVRYRRSW [satpdb10414] |  |  | 1 | 1 | Activity (cancer cell lines; [7]): 0; Activity (cancer cell lines; [8]): 0
CIAKGNGCQPSGVQGNCCSGHCHKEPGWVAGYCK [satpdb13088] | 0 | 0 |  |  | Activity (cancer cell lines; [6]): 0; Activity (erythrocytes; [4]): 0; Activity (erythrocytes; [5]): 0
ILPLKLPLLPWRR [satpdb11013] | 0 | 0 |  |  | Activity (cancer cell lines; [1]): 0; Activity (erythrocytes; [4]): 0; Activity (erythrocytes; [5]): 0
GFMDTAKNVAKNVAVTLLDNLKCKITKAC [satpdb14159] |  |  | 1 | 1 | 
WYSEMKRNVQRLERAIEE [satpdb11990] |  |  | 1 |  | 
GSKKPVPIIYANRRTGKAQRM [satpdb20538] |  |  | 0 | 0 | 
KKKKKKAAFAAFAAFAA [satpdb24627] |  |  | 0 |  | 
KRLFRRWQWRMKKY [satpdb17153] |  |  | 0 | 0 | 
FLPLLLAGLPKLLCLFFKKC [satpdb14955] |  |  | 1 | 1 | 
ALWKTLLKKVLKA [satpdb11740] |  |  | 1 |  | 
kWkSFLkTFkSLKkTVLHTLLkAISS [satpdb10734] |  |  |  |  | Activity (erythrocytes; [4]): 1; Activity (erythrocytes; [5]): 1
GWGSFFKKAAAVGKAVGKAALTAYL [satpdb15739] |  |  | 1 | 1 | 

Substance | Activity (cancer cell lines; [2]) | Activity (cancer cell lines; [3]) | Activity (erythrocytes) | Activity (dataset HD1, hemolytic 1 / non-hemolytic 0) (erythrocytes) | further results
KPLLKKLLKKL [satpdb28330] |  |  | 0 |  | 
KWKLFKKIPKFLHLAK [satpdb17849] |  |  |  |  | Activity (erythrocytes; [4]): 0; Activity (erythrocytes; [5]): 0
RAGLQFPVGRLLRRLLR [satpdb15223] |  |  | 0 | 0 | 
KSLRRVWRSWR [satpdb26460] |  |  | 0 |  | 
EWGRRCCGWGPGRRYCRRWC [satpdb13121] |  |  |  |  | Activity (erythrocytes; [5]): 0; Activity (dataset HD1, hemolytic 1 / non-hemolytic 0) (erythrocytes; [9]): 0
QTRRLTYKpRTVTYTRGR [satpdb13569] |  |  | 1 |  | 
FKCRRWQWRWKKLGAKPVPIIYCNRRTGKCQRM [satpdb24174] |  |  | 0 | 0 | 
KWKSFLkTFKSLKKTVLHTLLKAISS [satpdb10544] |  |  | 1 |  | 
WNPFKELERAGQRVRDAIISAAP [satpdb17819] |  |  | 0 | 0 | 
ALLHHGLNCAKGVLAALLHHGLNCAKGVLA [satpdb21285] |  |  | 0 | 0 | 
DANVENGEDAEDLTDKFIGLMG [satpdb17330] |  |  | 0 | 0 | 
LKKWLKKWLKK [satpdb15781] |  |  | 0 |  | 
KKKKKKAAFALWAAFAA [compound 1147] |  |  | 1 |  | 
KWKLKPLLKKLLKKL [satpdb10408] |  |  | 0 |  | 
GRRRRSVQWCA [satpdb24172] |  |  | 0 | 0 | 
GWGSIFKHGRHAAKHIGHAAVNHYL [satpdb11681] |  |  | 1 |  | 
FLSLIPHAINAVSAIAKHN [satpdb11891] |  |  | 1 |  | 
KWKLFKKIKFLHSAKKF [satpdb22653] |  |  | 0 |  | 
GILDTLKQFAKGVGKDLVKGAAQGVLSTVSCKLAKTC [satpdb16042] |  |  | 0 | 0 | 
